Source: PMC12892976, “Alkylation-based optimization of antifungal FPPS inhibitors yields a potent, broad-spectrum lipophilic zoledronate derivative” (mBio, 2025)
In brackets after ≈: the same amount, converted by molar mass.

How the values were obtained:
Candida parapsilosis = experiment: checkerboard drug interaction (FICI, MICc); type: cell-based;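 further: simplified diagonal checkerboard screen pairing antifungals with FPPS inhibitors, with FICI computed under the Loewe additivity model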
Description: (§1) Drug interactions between antifungals and FPPS inhibitors were investigated using a simplified checkerboard diagonal screening method ([45]). […] FICIs were determined according to the Loewe additivity model ([17]).

Aspergillus parafelis = experiment: checkerboard drug interaction (FICI, MICc);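 further: simplified diagonal checkerboard screen pairing antifungals with FPPS inhibitors, FICI calculated under the Loewe additivity model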
Description: as §1

Candida tropicalis = experiment: checkerboard drug interaction (FICI, MICc); type: cell-based;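 further: simplified diagonal checkerboard screen of antifungal plus FPPS inhibitor combinations, with FICI computed by the Loewe additivity model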
Description: as §1

Aspergillus lentulus [1] = experiment: checkerboard drug interaction (FICI, MICc); type: cell-based;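 further: simplified diagonal checkerboard screen pairing antifungals with FPPS inhibitors, with the interaction index calculated under the Loewe additivity model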
Description: as §1

Rhizopus oryzae = experiment: checkerboard drug interaction (FICI, MICc); type: cell-based;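 further: simplified diagonal checkerboard screen pairing antifungals with FPPS inhibitors, FICI calculated under the Loewe additivity model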
Description: as §1

Scedosporium apiospermum = experiment: MIC broth microdilution (CLSI); type: cell-based; conditions: Scedosporium apiospermum 04-16-022-2268
Description: (§2) Antifungal susceptibility was determined by broth microdilution according to the CLSI guidelines described in M27-Ed4 ([16]).

Trichophyton soudanense = experiment: checkerboard drug interaction (FICI, MICc); type: cell-based;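 further: simplified diagonal checkerboard screen pairing antifungals with FPPS inhibitors, FICI computed under the Loewe additivity model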
Description: as §1

[2] = tested on: Cryptococcus bacillisporus; experiment: MIC broth microdilution (CLSI); type: cell-based; conditions: Cryptococcus bacillisporus NIH179
Description: as §2

Aspergillus lentulus [3] = experiment: MIC broth microdilution (CLSI); type: cell-based; conditions: Aspergillus lentulus DTO 341-G7
Description: as §2

Mucor circinelloides = experiment: checkerboard drug interaction (FICI, MICc); type: cell-based;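 further: simplified diagonal checkerboard screen pairing antifungals with FPPS inhibitors, FICI calculated under the Loewe additivity model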
Description: as §1

Microsporum canis = experiment: checkerboard drug interaction (FICI, MICc); type: cell-based;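 further: simplified diagonal checkerboard screen pairing antifungals with FPPS inhibitors, FICI calculated under the Loewe additivity model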
Description: as §1

Aspergillus niger = experiment: MIC broth microdilution (CLSI); type: cell-based; conditions: Aspergillus niger 111
Description: as §2

Pichia kudriavzevii = experiment: MIC broth microdilution (CLSI); type: cell-based; conditions: Pichia kudriavzavii ATCC 6258
Description: Antifungal susceptibility was determined by broth microdilution according to the CLSI guidelines described in M27-Ed4 ([16]). […] MFC was determined by back-plating drug-treated cultures from MIC broths onto SDA plates. The MFC was defined as the lowest concentration from which no colonies could be cultured.

[4] = tested on: Cryptococcus deneoformans; experiment: checkerboard drug interaction (FICI, MICc); type: cell-based
Description: as §1

Trichophyton tonsurans = experiment: MIC broth microdilution (CLSI); conditions: Trichophyton tonsurans R-168
Description: as §2

Aspergillus felis = experiment: MIC broth microdilution (CLSI); type: cell-based; conditions: Aspergillus felis IHE87256683D6
Description: as §2

Compound: O=P(O)(O)C(O)(Cn1ccnc1)P(=O)(O)O [ZOL, zoledronate]
- FICI (Candida parapsilosis; KET:ZOL): 0.53
- FICI (Candida parapsilosis; VOR:ZOL): 1.21
- bisphosphonate MICc (Candida parapsilosis; ZOL with 5FC): 64
- bisphosphonate MICc (Candida parapsilosis; ZOL with AMB): 64
- bisphosphonate MICc (Candida parapsilosis; ZOL with CAS): 32
- bisphosphonate MICc (Candida parapsilosis; ZOL with FLC): 32
- bisphosphonate MICc (Candida parapsilosis; ZOL with ITR): 32
- bisphosphonate MICc (Candida parapsilosis; ZOL with KET): 4
- bisphosphonate MICc (Candida parapsilosis; ZOL with VOR): 32
- FICI (Aspergillus parafelis; 5FC:ZOL): 2
- FICI (Aspergillus parafelis; AMB:ZOL): 1.13
- FICI (Aspergillus parafelis; CAS:ZOL): 0.56
- FICI (Aspergillus parafelis; FLC:ZOL): 0.5
- FICI (Aspergillus parafelis; ITR:ZOL): 1.06
- FICI (Aspergillus parafelis; KET:ZOL): 2
- FICI (Aspergillus parafelis; VOR:ZOL): 0.5
- bisphosphonate MICc (Aspergillus parafelis; ZOL with 5FC): 512
- bisphosphonate MICc (Aspergillus parafelis; ZOL with AMB): 64
- bisphosphonate MICc (Aspergillus parafelis; ZOL with CAS): 32
- bisphosphonate MICc (Aspergillus parafelis; ZOL with FLC): 2
- bisphosphonate MICc (Aspergillus parafelis; ZOL with ITR): 32
- bisphosphonate MICc (Aspergillus parafelis; ZOL with KET): 512
- bisphosphonate MICc (Aspergillus parafelis; ZOL with VOR): 128
- FICI (Candida tropicalis; 5FC:ZOL): 0.75
- FICI (Candida tropicalis; AMB:ZOL): 2
- FICI (Candida tropicalis; CAS:ZOL): 0.4
- FICI (Candida tropicalis; FLC:ZOL): 0.31
- FICI (Candida tropicalis; ITR:ZOL): 0.31
- FICI (Candida tropicalis; KET:ZOL): 0.31
- FICI (Candida tropicalis; VOR:ZOL): 0.49
- bisphosphonate MICc (Candida tropicalis; ZOL with 5FC): 64
- bisphosphonate MICc (Candida tropicalis; ZOL with AMB): 128
- bisphosphonate MICc (Candida tropicalis; ZOL with CAS): 8
- bisphosphonate MICc (Candida tropicalis; ZOL with FLC): 32
- bisphosphonate MICc (Candida tropicalis; ZOL with ITR): 16
- bisphosphonate MICc (Candida tropicalis; ZOL with KET): 32
- bisphosphonate MICc (Candida tropicalis; ZOL with VOR): 1
- FICI (Aspergillus lentulus [1]; 5FC:ZOL): 3
- FICI (Aspergillus lentulus [1]; AMB:ZOL): 0.56
- FICI (Aspergillus lentulus [1]; CAS:ZOL): 0.63
- FICI (Aspergillus lentulus [1]; FLC:ZOL): 0.25
- FICI (Aspergillus lentulus [1]; ITR:ZOL): 0.31
- FICI (Aspergillus lentulus [1]; KET:ZOL): 0.38
- FICI (Aspergillus lentulus [1]; VOR:ZOL): 0.63
- bisphosphonate MICc (Aspergillus lentulus [1]; ZOL with 5FC): 512
- bisphosphonate MICc (Aspergillus lentulus [1]; ZOL with AMB): 32
- bisphosphonate MICc (Aspergillus lentulus [1]; ZOL with CAS): 64
- bisphosphonate MICc (Aspergillus lentulus [1]; ZOL with FLC): 2
- bisphosphonate MICc (Aspergillus lentulus [1]; ZOL with ITR): 32
- bisphosphonate MICc (Aspergillus lentulus [1]; ZOL with KET): 64
- bisphosphonate MICc (Aspergillus lentulus [1]; ZOL with VOR): 256
- FICI (Rhizopus oryzae; 5FC:ZOL): 3
- FICI (Rhizopus oryzae; AMB:ZOL): 1.13
- FICI (Rhizopus oryzae; CAS:ZOL): 0.63
- FICI (Rhizopus oryzae; FLC:ZOL): 1
- FICI (Rhizopus oryzae; ITR:ZOL): 1.02
- FICI (Rhizopus oryzae; KET:ZOL): 0.63
- FICI (Rhizopus oryzae; VOR:ZOL): 0.52
- bisphosphonate MICc (Rhizopus oryzae; ZOL with 5FC): 512
- bisphosphonate MICc (Rhizopus oryzae; ZOL with AMB): 64
- bisphosphonate MICc (Rhizopus oryzae; ZOL with CAS): 256
- bisphosphonate MICc (Rhizopus oryzae; ZOL with FLC): 256
- bisphosphonate MICc (Rhizopus oryzae; ZOL with ITR): 8
- bisphosphonate MICc (Rhizopus oryzae; ZOL with KET): 64
- bisphosphonate MICc (Rhizopus oryzae; ZOL with VOR): 8
- MIC / MEC (Scedosporium apiospermum): 256 µg/mL (≈ 941 µM)
- FICI (Trichophyton soudanense; 5FC:ZOL): 3
- FICI (Trichophyton soudanense; AMB:ZOL): 3
- FICI (Trichophyton soudanense; CAS:ZOL): 3
- FICI (Trichophyton soudanense; FLC:ZOL): 0.75
- FICI (Trichophyton soudanense; ITR:ZOL): 0.75
- FICI (Trichophyton soudanense; KET:ZOL): 0.38
- FICI (Trichophyton soudanense; VOR:ZOL): 0.49
- bisphosphonate MICc (Trichophyton soudanense; ZOL with 5FC): 128
- bisphosphonate MICc (Trichophyton soudanense; ZOL with AMB): 128
- bisphosphonate MICc (Trichophyton soudanense; ZOL with CAS): 64
- bisphosphonate MICc (Trichophyton soudanense; ZOL with FLC): 16
- bisphosphonate MICc (Trichophyton soudanense; ZOL with ITR): 16
- bisphosphonate MICc (Trichophyton soudanense; ZOL with KET): 8
- bisphosphonate MICc (Trichophyton soudanense; ZOL with VOR): 16
- MIC / MEC [2]: 128 µg/mL (≈ 470 µM)
- MIC / MEC (Aspergillus lentulus [3]): >256 µg/mL
- FICI (Mucor circinelloides; 5FC:ZOL): ≥4
- FICI (Mucor circinelloides; AMB:ZOL): 3
- FICI (Mucor circinelloides; CAS:ZOL): 1
- FICI (Mucor circinelloides; FLC:ZOL): 0.38
- FICI (Mucor circinelloides; ITR:ZOL): 0.25
- FICI (Mucor circinelloides; KET:ZOL): 0.75
- FICI (Mucor circinelloides; VOR:ZOL): 0.63
- bisphosphonate MICc (Mucor circinelloides; ZOL with 5FC): 64
- bisphosphonate MICc (Mucor circinelloides; ZOL with AMB): 128
- bisphosphonate MICc (Mucor circinelloides; ZOL with CAS): 32
- bisphosphonate MICc (Mucor circinelloides; ZOL with FLC): 16
- bisphosphonate MICc (Mucor circinelloides; ZOL with ITR): 8
- bisphosphonate MICc (Mucor circinelloides; ZOL with KET): 16
- bisphosphonate MICc (Mucor circinelloides; ZOL with VOR): 8
- FICI (Microsporum canis; 5FC:ZOL): ≥4
- FICI (Microsporum canis; AMB:ZOL): 0.75
- FICI (Microsporum canis; CAS:ZOL): 0.56
- FICI (Microsporum canis; FLC:ZOL): 0.38
- FICI (Microsporum canis; ITR:ZOL): 0.75
- FICI (Microsporum canis; KET:ZOL): 0.31
- FICI (Microsporum canis; VOR:ZOL): 0.63
- bisphosphonate MICc (Microsporum canis; ZOL with 5FC): 64
- bisphosphonate MICc (Microsporum canis; ZOL with AMB): 16
- bisphosphonate MICc (Microsporum canis; ZOL with CAS): 4
- bisphosphonate MICc (Microsporum canis; ZOL with FLC): 8
- bisphosphonate MICc (Microsporum canis; ZOL with ITR): 16
- bisphosphonate MICc (Microsporum canis; ZOL with KET): 4
- bisphosphonate MICc (Microsporum canis; ZOL with VOR): 8
- MIC / MEC (Aspergillus niger): >256 µg/mL
- MIC / MEC (Pichia kudriavzevii): 256 µg/mL (≈ 941 µM)
- FICI ([4]; 5FC:ZOL): 0.38
- FICI ([4]; AMB:ZOL): 0.63
- FICI ([4]; CAS:ZOL): 1
- FICI ([4]; FLC:ZOL): 0.5
- FICI ([4]; ITR:ZOL): 2.09
- FICI ([4]; KET:ZOL): 0.37
- FICI ([4]; VOR:ZOL): 1.54
- bisphosphonate MICc ([4]; ZOL with 5FC): 16
- bisphosphonate MICc ([4]; ZOL with AMB): 16
- bisphosphonate MICc ([4]; ZOL with CAS): 64
- bisphosphonate MICc ([4]; ZOL with FLC): 32
- bisphosphonate MICc ([4]; ZOL with ITR): 1
- bisphosphonate MICc ([4]; ZOL with KET): 16
- bisphosphonate MICc ([4]; ZOL with VOR): 64
- MIC / MEC (Trichophyton tonsurans): 128 µg/mL (≈ 470 µM)
- MIC / MEC (Aspergillus felis): >256 µg/mL
